Reference: US8535928B2, “Protease and use thereof” (Osaka University, priority 2008, dated 2013)
Starred links: 1 amine or outer side, 2 acyl side, 3 side chain; linkers in the order of their positions; H or OH if unused. Residues, ends and D or L forms follow the SMILES beside them. *: point of attachment. pNA = O=[N+]([O-])c1ccc(N*)cc1; Suc = O=C(CCC(=O)[*:2])[*:1]

Target: T1, Thermococcus kodakaraensis KOD1 protease Tk-SP (mature subtilisin-like serine protease, SEQ ID NO: 1 or SEQ ID NO: 3) (Thermococcus kodakarensis, UniProt Q5JIZ5)
T1 construct: C-terminus at 562 or 563
T1 sequence (Q5JIZ5 137-562): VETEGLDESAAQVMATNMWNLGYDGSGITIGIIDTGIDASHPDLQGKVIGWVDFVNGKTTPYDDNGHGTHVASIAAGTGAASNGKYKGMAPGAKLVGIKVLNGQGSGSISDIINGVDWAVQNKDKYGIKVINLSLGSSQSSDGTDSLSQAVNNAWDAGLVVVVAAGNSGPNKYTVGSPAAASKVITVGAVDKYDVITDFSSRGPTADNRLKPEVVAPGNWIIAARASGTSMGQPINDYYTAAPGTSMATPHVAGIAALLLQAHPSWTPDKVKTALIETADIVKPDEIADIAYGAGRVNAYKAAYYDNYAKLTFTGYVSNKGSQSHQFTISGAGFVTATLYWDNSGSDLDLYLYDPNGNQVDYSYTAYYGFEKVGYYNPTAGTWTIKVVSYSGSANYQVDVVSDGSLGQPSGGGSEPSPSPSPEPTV
Test: Rate parameters of Tk-SP with Suc-AAPF-pNA (Michaelis-Menten)
Format: biochemical
Experimental: For examination of the pH dependence and the buffer dependence of the Tk-SP, enzyme reactions were performed using acetate buffers (pH 4.5, 5.0, 5.2, 5.4 and 5.6), MES buffers (pH 5.5, 6.0, 6.5 and 7.0), HEPES buffers (pH 7.0 and 7.5), Tris-HCl buffers (pH 7.0, 7.5, 8.0, 8.5 and 9.0), glycine-NaOH buffers (pH 8.5, 9.0, 9.5 and 10.0) and CAPS-NaOH buffers (pH 9.0, 9.5, 10.0, 10.5, 11.0 and 11.5) in the following procedure. 100 μl of a reaction mixture containing a 50 mM buffer and 2 mM Suc-AAPF-pNA (synthetic substrate) was incubated at 20° C. for 5 minutes. To this, 0.1 μg of the Tk-SP was added and the reaction mixture was further incubated at 20° C. for 10 minutes. The reaction was stopped by addition of 10 μl of acetic acid, and then the amount of p-nitroaniline produced from the synthetic substrate Suc-AAPF-pNA was determined by use of the absorption coefficient of 8900 M^−1 cm^−1 from the absorbance at 410 nm in an ultraviolet spectrophotometer (Beckman model DU640). The amount of the enzyme which catalyzes the production of 1 μmol of p-nitroaniline per minute was defined as “one unit.” The enzyme activity per milligram of the protein was defined as specific activity.
By use of, as a substrate, Suc-AAPF-pNA at various concentrations ranging from 0.01 to 2 mM, the specific activity of the Tk-SP was measured at 20 and 80° C. The measurement procedure was the same as that of Example 2. The obtained values were applied to the Michaelis-Menten equation for calculation of the rate parameters. For comparison, the specific activity of a known thermostable protease, Tk-subtilisin (see nonpatent literature 1) was similarly measured and then the rate parameters thereof were calculated.

C[C@H](NC(=O)CCC(=O)O)C(=O)N[C@@H](C)C(=O)N1CCC[C@H]1C(=O)N[C@@H](Cc1ccccc1)C(=O)Nc1ccc([N+](=O)[O-])cc1 [Suc-AAPF-pNA] (Suc-AAPF-pNA)
Km value relative to the Km value of Tk-subtilisin (80° C.): about 1/10
Km (80° C., substrate 0.01 to 2 mM): 100 to 1000 µM
Km value compared with that of Tk-subtilisin (at either temperature (20 and 80° C.)): smaller than that of Tk-subtilisin
